Assay results: ChEMBL document CHEMBL3763076, “Novel 2-phenyl-5-[(E)-2-(thiophen-2-yl)ethenyl]-1,3,4-oxadiazole and 3-phenyl-5-[(E)-2-(thiophen-2-yl)ethenyl]-1,2,4-oxadiazole derivatives as dengue virus inhibitors targeting NS5 polymerase” (Eur J Med Chem, 2016)

Assays:
[1] = Cytotoxicity against African green monkey Vero E6 cells assessed as reduction in cell viability treated for 3 days measured on day 4 by cell titer-blue fluorescent assay; type: cell-based; conditions: chlorocebus sabaeus
dengue virus type 1 [2] = assay: Antiviral activity against clinical isolates of Dengue virus 1 Indonesia JKT 1186 TVP 949 infected in African green monkey Vero E6 cells assessed as reduction in viral RNA after 4 days by qRT-PCR method; type: functional, organism-based; conditions: Indonesia JKT 1186 TVP 949, Vero, 96 h
dengue virus type 2 [3] = assay: Antiviral activity against clinical isolates of Dengue virus 2 Martinique H/IMTSSA-MART/98-703 infected in African green monkey Vero E6 cells assessed as reduction in viral RNA after 4 days by qRT-PCR method; type: functional, organism-based; conditions: Martinique H/IMTSSA-MART/98-703, Vero, 96 h
dengue virus type 3 [4] = assay: Antiviral activity against clinical isolates of Dengue virus 3 Bolivia 4025 infected in African green monkey Vero E6 cells assessed as reduction in viral RNA after 4 days by qRT-PCR method; type: functional, organism-based; conditions: Bolivia 4025, Vero, 96 h
dengue virus type 4 [5] = assay: Antiviral activity against clinical isolates of Dengue virus 4 Dakar HD34460 infected in African green monkey Vero E6 cells assessed as reduction in viral RNA after 4 days by qRT-PCR method; type: functional, organism-based; conditions: 96 h
dengue virus type 4 [6] = assay: Antiviral activity against clinical isolates of Dengue virus 4 Martinique 017 infected in African green monkey Vero E6 cells assessed as reduction in viral RNA after 4 days by qRT-PCR method; type: functional, organism-based; conditions: Martinique 017, Vero, 96 h
dengue virus type 1 [7] = assay: Antiviral activity against clinical isolates of Dengue virus 1; type: functional, organism-based
dengue virus type 2 [8] = assay: Antiviral activity against clinical isolates of Dengue virus 2; type: functional, organism-based
dengue virus type 3 [9] = assay: Antiviral activity against clinical isolates of Dengue virus 3; type: functional, organism-based
dengue virus type 4 [10] = assay: Antiviral activity against clinical isolates of Dengue virus 4; type: functional, organism-based
[11] = Inhibition of Dengue virus 2 RdRp using homopolymeric uridine RNA as template assessed as reduction in RNA synthesis incubated for 10 mins by picogreen fluorescent assay; set-up: species or system dengue virus type 2

| Compound | IC50 [11] [nM] | further results |
| --- | --- | --- |
| C#C[C@@]1(O)[C@H](O)[C@@H](CO)O[C@H]1n1ccc2c(N)ncnc21 | – | CC50 at 72 h [1]: > 100000 nM; EC50 (dengue virus type 1 [2]): 860 nM; EC50 (dengue virus type 2 [3]): 820 nM; EC50 (dengue virus type 3 [4]): 120 nM; EC50 (dengue virus type 4 [5]): 80 nM; EC50 (dengue virus type 4 [6]): 30 nM |
| O=C(/C=C/c1ccc(Br)s1)Nc1ccc(Cl)c(Cl)c1 | – | EC50 (dengue virus type 1 [7]): 40 nM; EC50 (dengue virus type 2 [8]): 40 nM; EC50 (dengue virus type 3 [9]): 40 nM; EC50 (dengue virus type 4 [10]): 40 nM |
| CN(C)c1ccc(-c2nnc(/C=C/c3ccc(Br)s3)o2)cc1 | 20000 | – |
| COc1ccc(-c2nnc(/C=C/c3ccc(-c4ccccc4)s3)o2)cc1 | 22000 | – |
| C(=C\c1ccc(-c2ccccc2)s1)/c1nnc(-c2ccccc2)o1 | 18800 | – |
| FC(F)(F)c1ccc(-c2noc(/C=C/c3ccc(Br)s3)n2)cc1 | 21000 | – |
| O=C(/C=C/c1ccc(-c2ccccc2)s1)Nc1cccc(Cl)c1 | – | EC50 (dengue virus type 1 [7]): 400 nM; EC50 (dengue virus type 2 [8]): 400 nM; EC50 (dengue virus type 3 [9]): 400 nM; EC50 (dengue virus type 4 [10]): 400 nM |
| Brc1cccc(-c2nnc(/C=C/c3ccc(-c4ccccc4)s3)o2)c1 | 53900 | – |
| Fc1ccc(-c2nnc(/C=C/c3ccc(-c4ccccc4)s3)o2)cc1 | 17400 | – |
| FC(F)(F)Oc1ccc(-c2noc(/C=C/c3ccc(Br)s3)n2)cc1 | 32600 | – |
| O=C(/C=C/c1ccc([N+](=O)[O-])s1)Nc1ccc([N+](=O)[O-])cc1O | 1300 | – |
| CN(C)c1ccc(-c2nnc(/C=C/c3ccc(-c4ccccc4)s3)o2)cc1 | 41900 | – |
| Fc1cccc(-c2nnc(/C=C/c3ccc(Br)s3)o2)c1 | 16300 | – |
| Fc1ccc(-c2nnc(/C=C/c3ccc(Br)s3)o2)cc1 | 16300 | – |
| Clc1ccc(-c2nnc(/C=C/c3ccc(-c4ccccc4)s3)o2)cc1Cl | 24300 | – |
| Brc1ccc(/C=C/c2nnc(-c3ccccc3)o2)s1 | 16100 | – |
| O=c1cc(-c2ccc(Oc3c(O)cc4oc(-c5ccc(O)cc5)cc(=O)c4c3O)cc2)oc2cc(O)cc(O)c12 [HINOKIFLAVONE] | 450 | – |
